# Assay results as given in patent US6737383B1, “Herbicidal oxadiazolidines” (priority 1999, dated 2004).
# Key:
# Spanishneedles = experiment: Test D Spanishneedles; type: in vivo, Bidens bipinnata; details: Preemergence, 0 to 100 scale
# From the text: (§1) Seeds, tubers, or plant parts of Alexandergrass (Brachiaria plantaginea), bermuda-grass (Cynodon dactylon), common pursiane (Portulaca oleracea), common ragweed (Ambrosia elatior), common groundsel (Senecio vulgaris), dallisgrass (Paspalum dilatatum), goosegrass (Eleusine indica), guineagrass (Panicum maximum), itchgrass (Rottboellia exaltata), Johnson grass (Sorghum halepense), large crabgrass (Digitaria sanguinalis), pitted morningglory (Ipomoea lacunosa), purple nutsedge (Cyperus rotundus), sandbur (Cenchrus echinatus), sourgrass (Trichachne insularis), Spanishneedles (Bidens bipinnata), surinam grass (Brachiaria decumbens) and tall mallow (Malva sylvestris) were planted into greenhouse pots of flats containing greenhouse planting medium. Plant species were grown in separate pots or individual compartments. Preemergence applications were made within one day of planting the seed or plant part.
# (§2) Test chemicals were formulated in a non-phytotoxic solvent mixture which included a surfactant and applied preemergence to the surface of the pot containing seeds in a sandy loam soil. Untreated control pots and treated pots were placed in the greenhouse for growth and visually evaluated for injury 14 to 21 days after herbicide application. Plant response ratings, summarized in Table C, are based on a 0 to 100 scale where 0 is no injury and 100 is complete control. A dash (−) response means no test result.
# pitted morningglory = experiment: Test D pitted morningglory; type: in vivo, Ipomoea lacunosa; details: Preemergence, 0 to 100 scale
# From the text: as §1
# Test chemicals were formulated in a non-phytotoxic solvent mixture which included a surfactant and applied preemergence to the surface of the pot containing seeds in a sandy loam soil. Untreated control pots and treated pots were placed in the greenhouse for growth and visually evaluated for injury 14 to 21 days after herbicide application. […] A dash (−) response means no test result.
# bermuda-grass [1] = experiment: Test D bermudagrass; type: in vivo, Cynodon dactylon; details: Preemergence, 0 to 100 scale
# Outline: (§3)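 Values are visual plant-response ratings (0 no injury, 100 complete control) recorded 14 to 21 days after herbicide treatment, using a non-phytotoxic solvent mixture containing surfactant. Preemergence applications went to the surface of pots holding freshly sown seed in sandy loam.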
# large crabgrass [2] = experiment: Test D large crabgrass; type: in vivo, Digitaria sanguinalis; details: Preemergence, 0 to 100 scale
# Outline: as §3
# common ragweed [3] = experiment: Test D common ragweed; type: in vivo, Ambrosia elatior; details: Preemergence, 0 to 100 scale
# From the text: as §1, §2
# surinam grass = experiment: Test D surinam grass; type: in vivo, Brachiaria decumbens; details: Preemergence, 0 to 100 scale
# Outline: as §3
# dallisgrass = experiment: Test D dallisgrass; type: in vivo, Paspalum dilatatum; details: Postemergence, 0 to 100 scale
# goosegrass = experiment: Test D goosegrass; type: in vivo, Eleusine indica; details: Postemergence, 0 to 100 scale
# common ragweed [4] = experiment: Test D common ragweed; type: in vivo, Ambrosia elatior; details: Postemergence, 0 to 100 scale
# guineagrass = experiment: Test D guineagrass; type: in vivo, Panicum maximum; details: Postemergence, 0 to 100 scale
# Johnson grass = experiment: Test D Johnson grass; type: in vivo, Sorghum halepense; details: Postemergence, 0 to 100 scale
# Green foxtail [5] = experiment: Test D green foxtail; type: in vivo; details: Postemergence, 0 to 100 scale, 0 no injury, 100 complete control
# Green foxtail [6] = experiment: Test D green foxtail; type: in vivo; details: Postemergence, 0 to 100 scale, 0 no injury, 100 complete control; remark: listed apart in the source
# sandbur = experiment: Test D sandbur; type: in vivo, Cenchrus echinatus; details: Postemergence, 0 to 100 scale
# tall mallow = experiment: Test D tall mallow; type: in vivo, Malva sylvestris; details: Postemergence, 0 to 100 scale
# Alexandergrass = experiment: Test D Alexandergrass; type: in vivo, Brachiaria plantaginea; details: Postemergence, 0 to 100 scale
# large crabgrass [7] = experiment: Test D large crabgrass; type: in vivo, Digitaria sanguinalis; details: Postemergence, 0 to 100 scale
# purple nutsedge = experiment: Test D purple nutsedge; type: in vivo, Cyperus rotundus; details: Postemergence, 0 to 100 scale
# bermuda-grass [8] = experiment: Test D bermudagrass; type: in vivo, Cynodon dactylon; details: Postemergence, 0 to 100 scale
# [9] = Rate 32 g/ha, 0 no injury, 100 complete control
# [10] = Rate 64 g/ha, 0 no injury, 100 complete control
# [11] = Rate 125 g/ha, 0 no injury, 100 complete control
# [12] = Rate 16 g/ha, 0 no injury, 100 complete control
smiles,measurement,setting,value
Cc1ccc(-n2c(=O)on(C(=O)N(c3ccc(F)cc3F)C(C)C)c2=O)c(C)c1 [Compound 24],"Plant response rating, Spanishneedles",Spanishneedles; [9],0
same,Spanishneedles plant response rating,Spanishneedles; [10],0
same,Spanishneedles plant response rating,Spanishneedles; [11],0
same,"Plant response rating, Spanishneedles",Spanishneedles; Rate 500 g/ha,0
same,"Plant response rating, P. morninglory",pitted morningglory; [9],0
same,"Plant response rating, P. morninglory",pitted morningglory; [10],0
same,"Plant response rating, P. morninglory",pitted morningglory; [11],0
same,"Plant response rating, P. morninglory",pitted morningglory; Rate 250 g/ha,0
same,"Plant response rating, P. morninglory",pitted morningglory; Rate 500 g/ha,0
same,"Plant response rating, Bermudagrass",bermuda-grass [1]; [9],75
same,"Plant response rating, Bermudagrass",bermuda-grass [1]; [10],95
same,"Plant response rating, Bermudagrass",bermuda-grass [1]; [11],98
same,"Plant response rating, Bermudagrass",bermuda-grass [1]; Rate 250 g/ha,100
same,"Plant response rating, Bermudagrass",bermuda-grass [1]; Rate 500 g/ha,100
same,"Plant response rating, Large crabgrass",large crabgrass [2]; [9],70
same,"Plant response rating, Large crabgrass",large crabgrass [2]; [10],70
same,"Plant response rating, Large crabgrass",large crabgrass [2]; [11],100
same,"Plant response rating, Large crabgrass",large crabgrass [2]; Rate 250 g/ha,100
same,"Plant response rating, Large crabgrass",large crabgrass [2]; Rate 500 g/ha,100
same,"Plant response rating, C. ragweed",common ragweed [3]; [9],0
same,"Plant response rating, C. ragweed",common ragweed [3]; [10],0
same,"Plant response rating, C. ragweed",common ragweed [3]; [11],0
same,"Plant response rating, C. ragweed",common ragweed [3]; Rate 250 g/ha,0
same,"Plant response rating, C. ragweed",common ragweed [3]; Rate 500 g/ha,0
same,"Plant response rating, Surinam grass",surinam grass; [9],10
same,Surinam grass plant response rating,surinam grass; [10],10
same,Surinam grass plant response rating,surinam grass; [11],10
same,"Plant response rating, Surinam grass",surinam grass; Rate 250 g/ha,10
same,"Plant response rating, Surinam grass",surinam grass; Rate 500 g/ha,65
CC(C)N(C(=O)n1oc(=O)n(C(C)C)c1=O)c1ccccc1 [Compound 113],"Plant response rating, Spanishneedles",Spanishneedles; [12],0
same,"Plant response rating, Spanishneedles",Spanishneedles; [9],0
same,Spanishneedles plant response rating,Spanishneedles; [10],0
same,Spanishneedles plant response rating,Spanishneedles; [11],0
same,"Plant response rating, P. morninglory",pitted morningglory; [12],10
same,"Plant response rating, P. morninglory",pitted morningglory; [9],10
same,"Plant response rating, P. morninglory",pitted morningglory; [10],10
same,"Plant response rating, P. morninglory",pitted morningglory; [11],10
same,"Plant response rating, Bermudagrass",bermuda-grass [1]; [12],98
same,"Plant response rating, Bermudagrass",bermuda-grass [1]; [9],100
same,"Plant response rating, Bermudagrass",bermuda-grass [1]; [10],100
same,"Plant response rating, Bermudagrass",bermuda-grass [1]; [11],100
same,"Plant response rating, Large crabgrass",large crabgrass [2]; [12],85
same,"Plant response rating, Large crabgrass",large crabgrass [2]; [9],100
same,"Plant response rating, Large crabgrass",large crabgrass [2]; [10],100
same,"Plant response rating, Large crabgrass",large crabgrass [2]; [11],100
same,"Plant response rating, C. ragweed",common ragweed [3]; [12],0
same,"Plant response rating, C. ragweed",common ragweed [3]; [9],0
same,"Plant response rating, C. ragweed",common ragweed [3]; [10],0
same,"Plant response rating, C. ragweed",common ragweed [3]; [11],0
same,"Plant response rating, Surinam grass",surinam grass; [12],85
same,"Plant response rating, Surinam grass",surinam grass; [9],90
same,Surinam grass plant response rating,surinam grass; [10],98
same,Surinam grass plant response rating,surinam grass; [11],100
CC(C)N(C(=O)n1oc(=O)n(CC2CCCO2)c1=O)c1ccc(F)cc1 (centres unmarked) [Compound 343],"Plant response rating, Dallisgrass",dallisgrass; [12],0
same,"Plant response rating, Dallisgrass",dallisgrass; [9],30
same,"Plant response rating, Dallisgrass",dallisgrass; [10],90
same,"Plant response rating, Dallisgrass",dallisgrass; [11],90
same,"Plant response rating, Dallisgrass",dallisgrass; Rate 250 g/ha,100
same,"Plant response rating, Goosegrass",goosegrass; [12],40
same,"Plant response rating, Goosegrass",goosegrass; [9],80
same,"Plant response rating, Goosegrass",goosegrass; [10],90
same,"Plant response rating, Goosegrass",goosegrass; [11],90
same,"Plant response rating, Goosegrass",goosegrass; Rate 250 g/ha,100
same,"Plant response rating, C. ragweed",common ragweed [4]; [12],0
same,"Plant response rating, C. ragweed",common ragweed [4]; [9],0
same,"Plant response rating, C. ragweed",common ragweed [4]; [10],0
same,"Plant response rating, C. ragweed",common ragweed [4]; [11],60
same,"Plant response rating, C. ragweed",common ragweed [4]; Rate 250 g/ha,90
same,"Plant response rating, Guineagrass",guineagrass; [12],0
same,"Plant response rating, Guineagrass",guineagrass; [9],0
same,Guineagrass plant response rating,guineagrass; [10],80
same,"Plant response rating, Guineagrass",guineagrass; [10],0
same,"Plant response rating, Guineagrass",guineagrass; [11],50
same,"Plant response rating, Guineagrass",guineagrass; Rate 250 g/ha,100
same,"Plant response rating, Johnsongrass",Johnson grass; [12],0
same,"Plant response rating, Johnsongrass",Johnson grass; [9],0
same,"Plant response rating, Johnsongrass",Johnson grass; [10],20
same,"Plant response rating, Johnsongrass",Johnson grass; [11],20
same,"Plant response rating, Johnsongrass",Johnson grass; Rate 250 g/ha,100
same,Green foxtail plant response rating,Green foxtail [5]; Rate 64 g/ha,100
same,Green foxtail plant response rating,Green foxtail [5]; Rate 125 g/ha,100
same,"Plant response rating, Green foxtail",Green foxtail [6]; Rate 64 g/ha,100
same,"Plant response rating, Green foxtail",Green foxtail [6]; Rate 125 g/ha,100
same,"Plant response rating, Sandbur",sandbur; [12],0
same,"Plant response rating, Sandbur",sandbur; [9],0
same,Sandbur plant response rating,sandbur; [10],0
same,Sandbur plant response rating,sandbur; [11],50
same,"Plant response rating, Sandbur",sandbur; Rate 250 g/ha,50
same,"Plant response rating, Tall Mallow",tall mallow; [12],0
same,"Plant response rating, Tall Mallow",tall mallow; [9],0
same,Tall Mallow plant response rating,tall mallow; [10],0
same,Tall Mallow plant response rating,tall mallow; [11],0
same,"Plant response rating, Tall Mallow",tall mallow; Rate 250 g/ha,30
same,"Plant response rating, Alexandergrass",Alexandergrass; [12],0
same,"Plant response rating, Alexandergrass",Alexandergrass; [9],0
same,"Plant response rating, Alexandergrass",Alexandergrass; [10],50
same,"Plant response rating, Alexandergrass",Alexandergrass; [11],100
same,"Plant response rating, Alexandergrass",Alexandergrass; Rate 250 g/ha,100
same,"Plant response rating, Large crabgrass",large crabgrass [7]; [12],0
same,"Plant response rating, Large crabgrass",large crabgrass [7]; [9],30
same,"Plant response rating, Large crabgrass",large crabgrass [7]; [10],90
same,"Plant response rating, Large crabgrass",large crabgrass [7]; [11],100
same,"Plant response rating, Large crabgrass",large crabgrass [7]; Rate 250 g/ha,100
same,"Plant response rating, Purple nutsedge",purple nutsedge; [12],0
same,"Plant response rating, Purple nutsedge",purple nutsedge; [9],0
same,Purple nutsedge plant response rating,purple nutsedge; [10],0
same,Purple nutsedge plant response rating,purple nutsedge; [11],0
same,"Plant response rating, Purple nutsedge",purple nutsedge; Rate 250 g/ha,0
same,"Plant response rating, Bermudagrass",bermuda-grass [8]; [12],0
same,"Plant response rating, Bermudagrass",bermuda-grass [8]; [9],80
same,"Plant response rating, Bermudagrass",bermuda-grass [8]; [10],60
same,"Plant response rating, Bermudagrass",bermuda-grass [8]; [11],100
same,"Plant response rating, Bermudagrass",bermuda-grass [8]; Rate 250 g/ha,100
